From the NIST ThermoML archive (doi:10.1021/je200434a)
± gives the expanded uncertainty stated by the source.

Conditions: 101.33 kPa, Liquid; for viscosity: Concentric cylinders viscometry; for mass density: Vibrating tube method

CCn1cc[n+](C)c1.O=S(=O)([O-])O [1-ethyl-3-methylimidazolium hydrogen sulfate]
Conditions	mass density [kg/m3]	viscosity [mPa·s]
283.15 K	–	5756.7 ± 410
288.15 K	–	3635 ± 240
293.15 K	1368.86 ± 0.58	2389.9 ± 150
294.15 K	1368.25 ± 0.58	–
295.15 K	1367.63 ± 0.58	–
296.15 K	1367 ± 0.58	–
297.15 K	1366.38 ± 0.58	–
298.15 K	1365.77 ± 0.58	1628.4 ± 96
299.15 K	1365.14 ± 0.58	–
300.15 K	1364.53 ± 0.58	–
301.15 K	1363.91 ± 0.58	–
302.15 K	1363.29 ± 0.58	–
303.15 K	1362.67 ± 0.58	1144.8 ± 64
304.15 K	1362.05 ± 0.58	–
305.15 K	1361.44 ± 0.58	–
306.15 K	1360.82 ± 0.58	–
307.15 K	1360.21 ± 0.58	–
308.15 K	1359.59 ± 0.58	827.1 ± 44
309.15 K	1358.98 ± 0.58	–
310.15 K	1358.76 ± 0.58	–
311.15 K	1358.14 ± 0.58	–
312.15 K	1357.52 ± 0.58	–
313.15 K	1356.9 ± 0.58	612.2 ± 31
314.15 K	1356.28 ± 0.58	–
315.15 K	1355.67 ± 0.57	–
316.15 K	1355.05 ± 0.57	–
317.15 K	1354.43 ± 0.57	–
318.15 K	1353.81 ± 0.57	463 ± 23
319.15 K	1353.19 ± 0.57	–
320.15 K	1352.57 ± 0.57	–
321.15 K	1351.96 ± 0.57	–
322.15 K	1351.34 ± 0.57	–
323.15 K	1350.72 ± 0.57	356.8 ± 17
324.15 K	1350.11 ± 0.57	–
325.15 K	1349.49 ± 0.57	–
326.15 K	1348.88 ± 0.57	–
327.15 K	1348.27 ± 0.57	–
328.15 K	1347.65 ± 0.57	279.7 ± 13
329.15 K	1347.04 ± 0.57	–
330.15 K	1346.43 ± 0.57	–
331.15 K	1345.82 ± 0.57	–
332.15 K	1345.2 ± 0.57	–
333.15 K	1344.6 ± 0.57	222.6 ± 9.9
334.15 K	1343.99 ± 0.57	–
335.15 K	1343.38 ± 0.57	–
336.15 K	1342.77 ± 0.57	–
337.15 K	1342.16 ± 0.57	–
338.15 K	1341.56 ± 0.56	179.6 ± 7.8
339.15 K	1340.95 ± 0.56	–
340.15 K	1340.35 ± 0.56	–
341.15 K	1339.75 ± 0.56	–
342.15 K	1339.14 ± 0.56	–
343.15 K	1338.54 ± 0.56	146.7 ± 6.2
344.15 K	1337.94 ± 0.56	–
345.15 K	1337.34 ± 0.56	–
346.15 K	1336.74 ± 0.56	–
347.15 K	1336.14 ± 0.56	–
348.15 K	1335.54 ± 0.56	121.2 ± 5.1
349.15 K	1334.94 ± 0.56	–
350.15 K	1334.35 ± 0.56	–
351.15 K	1333.75 ± 0.56	–
352.15 K	1333.16 ± 0.56	–
353.15 K	1332.57 ± 0.56	101.2 ± 4.2
354.15 K	1331.97 ± 0.56	–
355.15 K	1331.38 ± 0.56	–
356.15 K	1330.79 ± 0.56	–
357.15 K	1330.2 ± 0.56	–
358.15 K	1329.61 ± 0.56	85.2 ± 3.5
359.15 K	1329.02 ± 0.56	–
360.15 K	1328.44 ± 0.56	–
361.15 K	1327.85 ± 0.56	–
362.15 K	1327.26 ± 0.56	–
363.15 K	1326.68 ± 0.55	72.4 ± 2.9
368.15 K	–	61.9 ± 2.5
373.15 K	–	53.4 ± 2.2

CCn1cc[n+](C)c1.COS(=O)(=O)[O-] [1-ethyl-3-methylimidazolium methylsulfate]
Conditions	mass density [kg/m3]	viscosity [mPa·s]
283.15 K	–	169.5 ± 7.3
288.15 K	–	128.6 ± 5.4
293.15 K	1289.48 ± 0.53	99.7 ± 4.1
294.15 K	1288.8 ± 0.53	–
295.15 K	1288.1 ± 0.53	–
296.15 K	1287.41 ± 0.53	–
297.15 K	1286.71 ± 0.53	–
298.15 K	1286.02 ± 0.53	78.8 ± 3.2
299.15 K	1285.33 ± 0.53	–
300.15 K	1284.64 ± 0.52	–
301.15 K	1283.95 ± 0.52	–
302.15 K	1283.26 ± 0.52	–
303.15 K	1282.57 ± 0.52	63.4 ± 2.6
304.15 K	1281.89 ± 0.52	–
305.15 K	1281.2 ± 0.52	–
306.15 K	1280.52 ± 0.52	–
307.15 K	1279.84 ± 0.52	–
308.15 K	1279.15 ± 0.52	51.8 ± 2.1
309.15 K	1278.48 ± 0.52	–
310.15 K	1277.8 ± 0.52	–
311.15 K	1277.12 ± 0.52	–
312.15 K	1276.44 ± 0.52	–
313.15 K	1275.76 ± 0.52	42.9 ± 1.7
314.15 K	1275.09 ± 0.52	–
315.15 K	1274.41 ± 0.52	–
316.15 K	1273.74 ± 0.52	–
317.15 K	1273.07 ± 0.52	–
318.15 K	1272.4 ± 0.52	35.9 ± 1.5
319.15 K	1271.72 ± 0.52	–
320.15 K	1271.05 ± 0.52	–
321.15 K	1270.38 ± 0.52	–
322.15 K	1269.71 ± 0.52	–
323.15 K	1269.04 ± 0.51	30.5 ± 1.2
324.15 K	1268.37 ± 0.51	–
325.15 K	1267.71 ± 0.51	–
326.15 K	1267.04 ± 0.51	–
327.15 K	1266.38 ± 0.51	–
328.15 K	1265.71 ± 0.51	26.1 ± 1.1
329.15 K	1265.05 ± 0.51	–
330.15 K	1264.39 ± 0.51	–
331.15 K	1263.72 ± 0.51	–
332.15 K	1263.06 ± 0.51	–
333.15 K	1262.4 ± 0.51	22.6 ± 0.9
334.15 K	1261.74 ± 0.51	–
335.15 K	1261.08 ± 0.51	–
336.15 K	1260.42 ± 0.51	–
337.15 K	1259.76 ± 0.51	–
338.15 K	1259.1 ± 0.51	19.7 ± 0.8
339.15 K	1258.44 ± 0.51	–
340.15 K	1257.78 ± 0.51	–
341.15 K	1257.13 ± 0.51	–
342.15 K	1256.47 ± 0.51	–
343.15 K	1255.81 ± 0.51	17.3 ± 0.7
344.15 K	1255.15 ± 0.51	–
345.15 K	1254.5 ± 0.51	–
346.15 K	1253.84 ± 0.5	–
347.15 K	1253.19 ± 0.5	–
348.15 K	1252.54 ± 0.5	15.3 ± 0.6
349.15 K	1251.88 ± 0.5	–
350.15 K	1251.23 ± 0.5	–
351.15 K	1250.58 ± 0.5	–
352.15 K	1249.93 ± 0.5	–
353.15 K	1249.28 ± 0.5	13.6 ± 0.6
354.15 K	1248.63 ± 0.5	–
355.15 K	1247.98 ± 0.5	–
356.15 K	1247.33 ± 0.5	–
357.15 K	1246.68 ± 0.5	–
358.15 K	1246.03 ± 0.5	12.2 ± 0.5
359.15 K	1245.38 ± 0.5	–
360.15 K	1244.74 ± 0.5	–
361.15 K	1244.09 ± 0.5	–
362.15 K	1243.44 ± 0.5	–
363.15 K	1242.8 ± 0.5	11 ± 0.4
368.15 K	–	9.9 ± 0.4
373.15 K	–	9 ± 0.4
